# System: Plasmodium falciparum 3D7
# Assay: In vitro antimalarial image-based asexual assay, 3D7
# Assay type: cell-based
# Conditions: Plasmodium falciparum, 3D7; chloroquine-sensitive strain; 72 h; n = 4; mean ± SD; read-out: Pf 3D7 IC50 ± SD
# Protocol: (§1) Plasmodium falciparum 3D7 and Dd2 parasites were cultured in RPMI1640 (Life Technologies, Camarillo, CA, USA) supplemented with 2.5 mg/mL Albumax II, 5% AB human serum, 25 mM HEPES and 0.37 mM hypoxanthine. Ring-stage parasites were treated with compounds following two rounds of sorbitol synchronisation as previously described. Artesunate, pyrimethamine and puromycin were incorporated as controls. Following incubation of assay plates for 72 h at 37 °C, and 5% CO2 and 5% O2, parasites were stained with 2-(4-amidinophenyl)-1H-indole-6-carboxamidine (DAPI) and imaged using an Opera QEHS confocal imaging system (PerkinElmer, Waltham, MA, USA). Images were analysed as previously described using Acapella spot detection software (PerkinElmer, Waltham, MA, USA).
row,IC50 [µM],SMILES
1,1.62 ± 0.154,CC(C)(C)OC(=O)NCCc1c(I)[nH]c2c1C(=O)C1=C(NC=C(I)S1(=O)=O)C2=O [Compound 8]
2,1.69 ± 0.316,NCCc1c(I)[nH]c2c1C(=O)C1=C(NC=C(I)S1(=O)=O)C2=O [Compound 10]
3,6.8 ± 2.44,NCCc1c(C(F)(F)F)[nH]c2c1C(=O)C1=C(NC=C(C(F)(F)F)S1(=O)=O)C2=O [Compound 11]

# Same assay, conditions: Plasmodium falciparum, 3D7; controls; chloroquine-sensitive strain; 72 h; n = 4; read-out: Pf 3D7 IC50 ± SD
row,IC50 [µM],SMILES
1,0.00049 ± 0.0002,"C[C@H]1[C@H](OC(=O)CCC(=O)O)O[C@@H]2O[C@@]3(C)CC[C@H]4[C@H](C)CC[C@@H]1[C@@]24OO3 [Artesunate, reference compound]"
2,0.0319 ± 0.0162,"COc1ccc(C[C@H](N)C(=O)N[C@H]2[C@@H](O)[C@H](n3cnc4c(N(C)C)ncnc43)O[C@@H]2CO)cc1 [Puromycin, reference compound]"
3,0.00375 ± 0.0003,"CCc1nc(N)nc(N)c1-c1ccc(Cl)cc1 [Pyrimethamine, reference compound]"

# Same assay, conditions: SI = HEK293 IC50/parasite IC50
row,SMILES,SI for 3D7
1,"C[C@H]1[C@H](OC(=O)CCC(=O)O)O[C@@H]2O[C@@]3(C)CC[C@H]4[C@H](C)CC[C@@H]1[C@@]24OO3 [Artesunate, reference compound]",>8163
2,CC(C)(C)OC(=O)NCCc1c(I)[nH]c2c1C(=O)C1=C(NC=C(I)S1(=O)=O)C2=O [Compound 8],>49
3,NCCc1c(I)[nH]c2c1C(=O)C1=C(NC=C(I)S1(=O)=O)C2=O [Compound 10],>47
4,NCCc1c(C(F)(F)F)[nH]c2c1C(=O)C1=C(NC=C(C(F)(F)F)S1(=O)=O)C2=O [Compound 11],>12
5,"COc1ccc(C[C@H](N)C(=O)N[C@H]2[C@@H](O)[C@H](n3cnc4c(N(C)C)ncnc43)O[C@@H]2CO)cc1 [Puromycin, reference compound]",33
6,"CCc1nc(N)nc(N)c1-c1ccc(Cl)cc1 [Pyrimethamine, reference compound]",">10,666"

# System: Plasmodium falciparum Dd2
# Assay: not given
# Parameters: method as in PMID 24032556
# Conditions: drug-resistant strain; read-out: IC50 Pf (Dd2); cited from earlier work
row,SMILES,IC50 [µM]
1,NCCc1c[nH]c2c1C(=O)C1=C(NCCS1(=O)=O)C2=O [Thiaplakortone B],0.092
2,CN[C@@H](Cc1c[nH]c2c1C(=O)C1=C(NC=CS1(=O)=O)C2=O)C(=O)O [Thiaplakortone C],0.17
3,CN[C@@H](Cc1c[nH]c2c1C(=O)C1=C(C2=O)S(=O)(=O)C=CN1)C(=O)O [Thiaplakortone D],0.16

# System: HEK293 cells
# Assay: In vitro cytotoxicity assay (Alamar Blue)
# Assay type: cell-based, human
# Conditions: HEK293; human embryonic kidney cells; 72 h; n = 2; mean ± SD
# Protocol: Human embryonic kidney cells (HEK293) were maintained in DMEM (Life Technologies, Camarillo, CA, USA) containing 10% FBS (Hyclone™ ThermoFisher, Melbourne, Australia). Cytotoxicity testing was undertaken as previously described. In brief, 5 μL of test compound was added/well of black/clear tissue culture treated 384-well plates containing 3000 adherent HEK293 cells/well in 45 μL and incubated 72 h at 37 °C in 5% CO2. After incubation, the supernatant was removed and replaced with 40 μL of 10% Alamar Blue per well. Plates were incubated for 5–6 h and measured for fluorescence at 530 nm excitation and 595 nm emission. The % inhibition was calculated using 0.4% DMSO (no inhibition) and 5 μM puromycin (100% inhibition) data. IC50 values were obtained by plotting % inhibition against log dose using GraphPad Prism v.6 (San Diego, CA, USA), nonlinear regression with a variable slope plot.
row,SMILES,IC50 [µM]
1,CC(C)(C)OC(=O)NCCc1c(I)[nH]c2c1C(=O)C1=C(NC=C(I)S1(=O)=O)C2=O [Compound 8],> 80
2,NCCc1c(I)[nH]c2c1C(=O)C1=C(NC=C(I)S1(=O)=O)C2=O [Compound 10],> 80
3,NCCc1c(C(F)(F)F)[nH]c2c1C(=O)C1=C(NC=C(C(F)(F)F)S1(=O)=O)C2=O [Compound 11],> 80

# Same assay, conditions: Homo sapiens, HEK293; controls; 72 h; n = 2; read-out: HEK293 IC50 ± SD
row,SMILES,IC50 [µM]
1,"C[C@H]1[C@H](OC(=O)CCC(=O)O)O[C@@H]2O[C@@]3(C)CC[C@H]4[C@H](C)CC[C@@H]1[C@@]24OO3 [Artesunate, reference compound]",> 4
2,"COc1ccc(C[C@H](N)C(=O)N[C@H]2[C@@H](O)[C@H](n3cnc4c(N(C)C)ncnc43)O[C@@H]2CO)cc1 [Puromycin, reference compound]",1.04 ± 0.066
3,"CCc1nc(N)nc(N)c1-c1ccc(Cl)cc1 [Pyrimethamine, reference compound]",> 40

# System: Plasmodium falciparum Dd2
# Assay: In vitro antimalarial image-based asexual assay, Dd2
# Assay type: cell-based
# Conditions: Plasmodium falciparum, DD2; chloroquine, pyrimethamine and mefloquine drug-resistant strain; 72 h; n = 4; mean ± SD; read-out: Pf Dd2 IC50 ± SD
# Protocol: as §1
row,IC50 [µM],SMILES
1,0.659 ± 0.119,CC(C)(C)OC(=O)NCCc1c(I)[nH]c2c1C(=O)C1=C(NC=C(I)S1(=O)=O)C2=O [Compound 8]
2,0.725 ± 0.244,NCCc1c(I)[nH]c2c1C(=O)C1=C(NC=C(I)S1(=O)=O)C2=O [Compound 10]
3,4.55 ± 1.15,NCCc1c(C(F)(F)F)[nH]c2c1C(=O)C1=C(NC=C(C(F)(F)F)S1(=O)=O)C2=O [Compound 11]

# Same assay, conditions: Plasmodium falciparum, DD2; controls; drug-resistant strain; 72 h; n = 4; read-out: Pf Dd2 IC50 ± SD
row,IC50 [µM],SMILES
1,0.00038 ± 1e-05,"C[C@H]1[C@H](OC(=O)CCC(=O)O)O[C@@H]2O[C@@]3(C)CC[C@H]4[C@H](C)CC[C@@H]1[C@@]24OO3 [Artesunate, reference compound]"
2,0.017 ± 0.00396,"COc1ccc(C[C@H](N)C(=O)N[C@H]2[C@@H](O)[C@H](n3cnc4c(N(C)C)ncnc43)O[C@@H]2CO)cc1 [Puromycin, reference compound]"
3,> 40,"CCc1nc(N)nc(N)c1-c1ccc(Cl)cc1 [Pyrimethamine, reference compound]"

# Same assay, conditions: SI = HEK293 IC50/parasite IC50
row,SMILES,SI for Dd2
1,"C[C@H]1[C@H](OC(=O)CCC(=O)O)O[C@@H]2O[C@@]3(C)CC[C@H]4[C@H](C)CC[C@@H]1[C@@]24OO3 [Artesunate, reference compound]",">10,526"
2,CC(C)(C)OC(=O)NCCc1c(I)[nH]c2c1C(=O)C1=C(NC=C(I)S1(=O)=O)C2=O [Compound 8],>121
3,NCCc1c(I)[nH]c2c1C(=O)C1=C(NC=C(I)S1(=O)=O)C2=O [Compound 10],>110
4,NCCc1c(C(F)(F)F)[nH]c2c1C(=O)C1=C(NC=C(C(F)(F)F)S1(=O)=O)C2=O [Compound 11],>18
5,"COc1ccc(C[C@H](N)C(=O)N[C@H]2[C@@H](O)[C@H](n3cnc4c(N(C)C)ncnc43)O[C@@H]2CO)cc1 [Puromycin, reference compound]",61

# System: Plasmodium falciparum 3D7
# Assay: not given
# Parameters: method as in PMID 24032556
# Conditions: drug-sensitive strain; read-out: IC50 Pf (3D7); cited from earlier work
row,SMILES,IC50 [µM]
1,NCCc1c[nH]c2c1C(=O)C1=C(NCCS1(=O)=O)C2=O [Thiaplakortone B],0.65
2,CN[C@@H](Cc1c[nH]c2c1C(=O)C1=C(NC=CS1(=O)=O)C2=O)C(=O)O [Thiaplakortone C],0.31
3,CN[C@@H](Cc1c[nH]c2c1C(=O)C1=C(C2=O)S(=O)(=O)C=CN1)C(=O)O [Thiaplakortone D],0.28
